# Read-outs that look alike come from different tables or passages of the source.
# Tests used:
# Assay type in all cases: cell-based
# α4β7 integrin [1] = molecular target: T1, α4β7 integrin (Homo sapiens (Human), UniProt P13612+P26010); test: Integrin Adhesion Assay: Protocol 1 (MAdCAM-coated plate, RPMI-8866 cells, CellTiter GLO readout)
# How it was run: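 RPMI-8866 cells (2×10^6 per mL) added with compounds (1% DMSO) to MAdCAM-coated wells blocked in HEPES/NaCl buffer with 1 mM MnCl2, 0.1 mM CaCl2, 1% BSA; 1 h at 37° C, 5% CO2. After four washes, bound cells read by CellTiter GLO luminescence; % inhibition vs DMSO and control wells, 4-parameter fit.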
# α4β7 integrin [2] = molecular target: T1, α4β7 integrin; test: Integrin Adhesion Assay: Protocol 4 (MAdCAM-coated plate, RPMI-8866 cells with stable LOF mutation of the ITGB1 gene)
# How it was run: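 RPMI-8866 cells with CRISPR/Cas9 knockout of ITGB1 (2×10^6/mL) were added to MAdCAM-coated wells with compound (1% DMSO) in HEPES/NaCl buffer with 1 mM MnCl2, 0.1 mM CaCl2 and 1% BSA, then incubated 1 h at 37 °C. After four washes, adherent cells were quantified by CellTiter-Glo luminescence. Percent inhibition versus DMSO and control compound was fitted to 4-parameter curves.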
# α4β1 integrin = α4β1 integrin (Homo sapiens (Human), UniProt P05556+P13612); test: Integrin Adhesion Assay: Protocol 5 (VCAM-coated plate, RPMI-8866 cells with stable LOF mutation of the ITGB7 gene)
# How it was run: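 RPMI-8866 B cells with CRISPR/Cas9 ITGB7 knockout (clonal, verified by flow cytometry) adhered to VCAM-coated wells for 1 h at 37° C in HEPES/NaCl buffer with 1 mM MnCl2, 0.1 mM CaCl2, 1% BSA, 1% DMSO. Bound cells quantified by CellTiter-Glo luminescence after washing; % inhibition versus DMSO and control, 4-parameter fit.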
# [3] = RPMI-8866 cells with stable LOF mutation of the ITGB1 gene, read-out: Mean IC50 α4β7 KO^a
# [4] = RPMI-8866 cells with stable LOF mutation of the ITGB7 gene, read-out: Mean IC50 α4β1 KO^b
# [5] = Protocol 4, RPMI-8866 cells with LOF mutation of ITGB1, MAdCAM, read-out: Mean IC50 α4β7 KO
# [6] = Protocol 5, RPMI-8866 cells with LOF mutation of ITGB7, VCAM, read-out: Mean IC50 α4β1 KO
# Sequence of α4β1 integrin (P13612 34-1032): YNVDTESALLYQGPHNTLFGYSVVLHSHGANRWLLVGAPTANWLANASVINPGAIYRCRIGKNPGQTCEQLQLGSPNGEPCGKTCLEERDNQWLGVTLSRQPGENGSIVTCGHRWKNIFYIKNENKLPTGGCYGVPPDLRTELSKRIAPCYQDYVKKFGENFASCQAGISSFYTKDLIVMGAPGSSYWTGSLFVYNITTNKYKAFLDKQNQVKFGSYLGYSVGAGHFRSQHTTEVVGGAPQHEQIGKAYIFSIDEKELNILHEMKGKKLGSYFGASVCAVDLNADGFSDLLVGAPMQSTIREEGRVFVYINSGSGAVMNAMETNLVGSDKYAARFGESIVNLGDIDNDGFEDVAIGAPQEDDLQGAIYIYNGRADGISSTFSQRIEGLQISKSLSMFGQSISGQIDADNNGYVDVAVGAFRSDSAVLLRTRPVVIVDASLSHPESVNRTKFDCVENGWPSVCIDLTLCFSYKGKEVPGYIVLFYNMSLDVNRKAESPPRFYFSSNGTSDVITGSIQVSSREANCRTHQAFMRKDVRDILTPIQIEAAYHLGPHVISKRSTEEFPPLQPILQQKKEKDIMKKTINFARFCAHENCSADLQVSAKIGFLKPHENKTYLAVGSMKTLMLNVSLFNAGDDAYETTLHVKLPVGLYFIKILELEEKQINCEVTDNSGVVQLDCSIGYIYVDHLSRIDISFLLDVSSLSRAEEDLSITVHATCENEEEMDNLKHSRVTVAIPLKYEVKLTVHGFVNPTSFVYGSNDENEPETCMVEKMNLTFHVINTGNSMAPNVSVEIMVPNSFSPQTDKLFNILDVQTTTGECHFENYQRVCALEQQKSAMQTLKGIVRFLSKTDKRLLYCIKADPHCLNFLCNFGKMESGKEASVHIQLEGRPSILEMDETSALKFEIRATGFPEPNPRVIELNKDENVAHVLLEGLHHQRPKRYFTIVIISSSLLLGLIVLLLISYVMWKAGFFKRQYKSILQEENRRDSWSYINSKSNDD
# Sequence of α4β1 integrin (P05556 21-798): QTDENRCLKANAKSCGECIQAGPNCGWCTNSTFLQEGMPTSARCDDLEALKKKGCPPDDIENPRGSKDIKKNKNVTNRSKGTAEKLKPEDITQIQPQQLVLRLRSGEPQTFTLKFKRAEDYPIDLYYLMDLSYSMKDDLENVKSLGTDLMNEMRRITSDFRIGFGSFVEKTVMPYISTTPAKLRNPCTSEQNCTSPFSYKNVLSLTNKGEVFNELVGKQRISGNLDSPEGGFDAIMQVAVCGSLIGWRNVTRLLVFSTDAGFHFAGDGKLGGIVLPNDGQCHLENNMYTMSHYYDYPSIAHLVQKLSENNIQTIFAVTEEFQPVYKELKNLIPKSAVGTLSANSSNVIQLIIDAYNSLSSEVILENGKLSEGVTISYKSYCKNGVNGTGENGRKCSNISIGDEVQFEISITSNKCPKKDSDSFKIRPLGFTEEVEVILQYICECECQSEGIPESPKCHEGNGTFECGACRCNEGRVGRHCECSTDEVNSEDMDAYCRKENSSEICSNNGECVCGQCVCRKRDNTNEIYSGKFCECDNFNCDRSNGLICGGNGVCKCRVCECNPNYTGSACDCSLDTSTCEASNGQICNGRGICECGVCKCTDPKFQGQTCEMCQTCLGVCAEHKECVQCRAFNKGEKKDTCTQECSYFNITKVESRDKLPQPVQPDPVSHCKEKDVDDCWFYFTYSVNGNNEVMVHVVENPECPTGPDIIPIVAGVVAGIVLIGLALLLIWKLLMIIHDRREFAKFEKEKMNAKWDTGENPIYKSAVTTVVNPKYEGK
# T1 sequence (P13612 34-1032): as the sequence (P13612 34-1032) above
# T1 sequence (P26010 20-798): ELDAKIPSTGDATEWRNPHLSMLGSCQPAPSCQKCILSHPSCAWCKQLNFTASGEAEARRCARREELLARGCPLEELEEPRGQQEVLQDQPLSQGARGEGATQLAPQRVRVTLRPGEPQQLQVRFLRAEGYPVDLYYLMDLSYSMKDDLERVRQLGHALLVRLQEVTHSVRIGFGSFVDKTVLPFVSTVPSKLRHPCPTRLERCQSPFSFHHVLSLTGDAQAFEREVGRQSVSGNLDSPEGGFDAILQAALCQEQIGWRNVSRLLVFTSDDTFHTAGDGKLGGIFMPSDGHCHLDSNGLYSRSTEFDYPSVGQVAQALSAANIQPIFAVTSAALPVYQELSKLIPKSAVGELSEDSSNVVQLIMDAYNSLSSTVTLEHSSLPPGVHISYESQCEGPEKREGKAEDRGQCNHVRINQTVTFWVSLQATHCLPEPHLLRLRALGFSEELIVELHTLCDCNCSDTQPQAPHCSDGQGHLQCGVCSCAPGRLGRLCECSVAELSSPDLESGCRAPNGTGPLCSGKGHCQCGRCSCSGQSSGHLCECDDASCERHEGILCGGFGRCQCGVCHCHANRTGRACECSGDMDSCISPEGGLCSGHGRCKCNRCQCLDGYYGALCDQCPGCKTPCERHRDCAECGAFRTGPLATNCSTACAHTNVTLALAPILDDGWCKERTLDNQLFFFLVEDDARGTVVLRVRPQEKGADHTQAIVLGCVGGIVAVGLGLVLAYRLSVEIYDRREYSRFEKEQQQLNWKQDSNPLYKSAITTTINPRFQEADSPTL
SMILES,IC50 (α4β7 integrin [1]),IC50 (α4β7 integrin [2]; [3]),IC50 (α4β1 integrin; [4]),IC50 (α4β7 integrin [1]; protocol not given),IC50 (α4β7 integrin [2]; [5]),IC50 (α4β1 integrin; [6])
CCOCc1cc(OC)c(-c2cccc3c(C[C@H](NC(=O)c4c(C)cccc4F)C(=O)O)cccc23)c(OC)c1 [Compound 448],< 0.01 µM,< 0.01 µM,0.1 to 1 µM,–,–,–
O=C(N[C@@H](Cc1cccc2c(-n3cccc(C(F)(F)F)c3=O)cccc12)C(=O)O)c1c(F)cccc1F [Compound 1054],–,–,–,0.01 to 0.1 µM,0.01 to 0.1 µM,> 1 µM
CN(C)c1ccc2c(c1)c(C(F)(F)F)c(-c1cccc3c(C[C@H](NC(=O)C4(C(F)(F)F)CCN(CC(F)(F)F)CC4)C(=O)O)cccc13)c(=O)n2C [Compound 454],0.01 to 0.1 µM,0.01 to 0.1 µM,> 1 µM,–,–,–
Cn1c(=O)c(-c2cccc3c(C[C@H](NC(=O)[C@]4(C(F)(F)F)CC[C@@H](N5CCOC[C@@H]5C(F)(F)F)CC4)C(=O)O)cccc23)c(C(F)(F)F)c2ccccc21 [Compound 422],0.01 to 0.1 µM,0.1 to 1 µM,> 1 µM,–,–,–
Cn1c(=O)c(-c2cccc3c(C[C@H](NC(=O)C4(C(F)(F)F)CCN(CC(F)(F)F)CC4)C(=O)O)cccc23)c(C(F)(F)F)c2ccccc21 [Compound 352],0.01 to 0.1 µM,0.01 to 0.1 µM,0.1 to 1 µM,–,–,–
Cn1c(=O)c(-c2cccc3c(C[C@H](NC(=O)[C@]4(C)CC[C@@H](N5CCS(=O)(=O)CC5)CC4)C(=O)O)cccc23)c(C(F)(F)F)c2ccccc21 [Compound 403],0.01 to 0.1 µM,0.01 to 0.1 µM,> 1 µM,–,–,–
CN1CCC(c2cc(F)c(C(=O)N[C@@H](Cc3cccc4c(-c5c(C(F)(F)F)c6ccccc6n(C)c5=O)cccc34)C(=O)O)c(F)c2)C1 (stereo partly shown) [Compound 372],0.1 to 1 µM,0.1 to 1 µM,–,–,–,–
Cn1c(=O)c(-c2cccc3c(C[C@H](NC(=O)c4c(F)cc(NC5(C(F)F)CC5)cc4F)C(=O)O)cccc23)c(C(F)(F)F)c2ccccc21 [Compound 387],0.1 to 1 µM,0.1 to 1 µM,–,–,–,–
CN(C)CCc1cc(F)c(C(=O)N[C@@H](Cc2cccc3c(-c4c(C(F)(F)F)c5ccccc5n(C)c4=O)cccc23)C(=O)O)c(F)c1 [Compound 367],0.1 to 1 µM,0.1 to 1 µM,–,–,–,–
Cn1c(=O)c(-c2cccc3c(C[C@H](NC(=O)c4c(F)cc(N5CC(F)(F)OC(F)(F)C5)cc4F)C(=O)O)cccc23)c(C(F)(F)F)c2ccccc21 [Compound 341],0.1 to 1 µM,0.1 to 1 µM,–,–,–,–
Cn1c(=O)c(-c2cccc3c(C[C@H](NC(=O)c4c(F)ccc(-c5ccncc5)c4F)C(=O)O)cccc23)c(C(F)(F)F)c2ccccc21 [Compound 311],0.1 to 1 µM,0.1 to 1 µM,–,–,–,–
Cn1c(=O)c(-c2cccc3c(C[C@H](NC(=O)C45CC(C(F)F)(C4)C5)C(=O)O)cccc23)c(C(F)(F)F)c2ccccc21 [Compound 390],0.1 to 1 µM,0.1 to 1 µM,–,–,–,–
"CN(C)c1ccc2c(c1)c(C(F)(F)F)c(-c1cccc3c(C[C@H](NC(=O)[C@]4(C)CC[C@H](N5CCOC[C@@H]5C(F)(F)F)CC4)C(=O)O)cccc13)c(=O)n2C (single isomer, unassigned) [Compound 410]",0.1 to 1 µM,0.1 to 1 µM,–,–,–,–
CC[C@@](Cc1cccs1)(C(=O)N[C@@H](Cc1cccc2c(-c3c(C(F)(F)F)ccn(C)c3=O)nccc12)C(=O)O)c1ccccc1 [Compound 291],0.1 to 1 µM,0.1 to 1 µM,–,–,–,–
"CN(C)Cc1cccc2c(-c3cccc4c(C[C@H](NC(=O)[C@]5(C)CC[C@H](N6CCOC[C@@H]6C(F)(F)F)CC5)C(=O)O)cccc34)nccc12 (single isomer, unassigned) [Compound 419]",0.01 to 0.1 µM,0.01 to 0.1 µM,> 1 µM,–,–,–
CN(C)Cc1cccc2c(-c3cccc4c(C[C@H](NC(=O)[C@]5(C)CC[C@H](N6CCC(F)(F)CC6)CC5)C(=O)O)cccc34)nccc12 [Compound 425],0.1 to 1 µM,0.1 to 1 µM,–,–,–,–
Cn1c(=O)c(-c2cccc3c(C[C@H](NC(=O)c4c(F)cc(N5CCCCC5)cc4F)C(=O)O)cccc23)c(C(F)(F)F)c2ccccc21 [Compound 354],0.1 to 1 µM,0.1 to 1 µM,> 1 µM,–,–,–
Cn1c(=O)c(-c2cccc3c(C[C@H](NC(=O)[C@]4(C)CC[C@@H](N5CC(F)(F)C5)CC4)C(=O)O)cccc23)c(C(F)(F)F)c2ccccc21 [Compound 399],0.1 to 1 µM,0.01 to 0.1 µM,–,–,–,–
Cc1cccc(F)c1C(=O)N[C@@H](Cc1cccc2c(-c3c(C(F)(F)F)c4ccccc4n(C)c3=O)cccc12)C(=O)O [Compound 355],0.01 to 0.1 µM,0.01 to 0.1 µM,> 1 µM,–,–,–
Cn1c(=O)c(-c2cccc3c(C[C@H](NC(=O)[C@]4(C)CC[C@H](N5CC(F)(F)C5)CC4)C(=O)O)cccc23)c(C(F)(F)F)c2ccccc21 [Compound 400],0.1 to 1 µM,0.1 to 1 µM,–,–,–,–

SMILES,IC50 (α4β7 integrin [1]),IC50 (α4β7 integrin [2]; [3]),IC50 (α4β1 integrin; [4]),IC50 (α4β7 integrin [1]; protocol not given),IC50 (α4β7 integrin [2]; [5]),IC50 (α4β1 integrin; [6])
CN(C)c1ccc2c(C(F)(F)F)c(-c3cccc4c(C[C@H](NC(=O)c5c(F)cccc5F)C(=O)O)cccc34)c(=O)n(C)c2c1 [Compound 719],–,–,–,0.1 to 1 µM,> 1 µM,> 1 µM
Cn1ccc(C(F)(F)F)c(-c2cccc3c(C[C@H](NC(=O)c4c(F)cc(N5CCOCC5c5ccc(C(F)(F)F)cc5)cc4F)C(=O)O)cccc23)c1=O (stereo partly shown) [Compound 442],0.1 to 1 µM,0.1 to 1 µM,–,–,–,–
Cn1c(=O)c(-c2cccc3c(C[C@H](NC(=O)c4c(F)cc(N5CCOC[C@@H]5c5ccccc5)cc4F)C(=O)O)cccc23)c(C(F)(F)F)c2ccccc21 [Compound 336],0.1 to 1 µM,0.1 to 1 µM,–,–,–,–
Cc1cncc(C)c1-c1cc(F)c(C(=O)N[C@@H](Cc2cccc3c(-c4c(C(F)(F)F)c5ccccc5n(C)c4=O)cccc23)C(=O)O)c(F)c1 [Compound 305],0.1 to 1 µM,> 1 µM,–,–,–,–
Cc1cccc(C)c1-c1cc(C(=O)N[C@@H](Cc2cccc3c(-n4c(=O)cc(CCN5CC(F)C5)n(C)c4=O)cccc23)C(=O)O)c(F)c(C(F)(F)F)c1 [Compound 1056],–,–,–,0.1 to 1 µM,> 1 µM,–
Cn1c(=O)c(-c2cccc3c(C[C@H](NC(=O)c4c(F)cc(CCN5CC(F)C5)cc4F)C(=O)O)cccc23)c(C(F)(F)F)c2ccccc21 [Compound 371],0.1 to 1 µM,0.1 to 1 µM,–,–,–,–
Cn1c(=O)c(-c2cccc3c(C[C@H](NC(=O)[C@]4(C)CC[C@@H](N5CCS(=O)(=O)CC5)CC4)C(=O)O)cccc23)c(C(F)(F)F)c2ccccc21 [Compound 404],0.1 to 1 µM,0.1 to 1 µM,–,–,–,–
Cn1c(=O)c(-c2cccc3c(C[C@H](NC(=O)c4c(F)cc([C@H]5C[C@@H](N(C)C)C5)cc4F)C(=O)O)cccc23)c(C(F)(F)F)c2ccccc21 [Compound 416],0.1 to 1 µM,0.1 to 1 µM,–,–,–,–
Cn1c(=O)c(-c2cccc3c(C[C@H](NC(=O)c4c(F)cc(N5CCC(CO)C5)cc4F)C(=O)O)cccc23)c(C(F)(F)F)c2ccccc21 (stereo partly shown) [Compound 462],0.1 to 1 µM,0.1 to 1 µM,–,–,–,–
Cn1c(=O)c(-c2cccc3c(C[C@H](NC(=O)C45CC(N6CCOCC6)(C4)C5)C(=O)O)cccc23)c(C(F)(F)F)c2ccccc21 [Compound 459],0.1 to 1 µM,0.1 to 1 µM,–,–,–,–
Cn1c(C(=O)N[C@@H](Cc2cccc3c(-c4c(C(F)(F)F)c5ccccc5n(C)c4=O)cccc23)C(=O)O)cnc1C1CCOCC1 [Compound 328],0.1 to 1 µM,0.1 to 1 µM,–,–,–,–
CN(C)CC1CN(c2cc(F)c(C(=O)N[C@@H](Cc3cccc4c(-c5c(C(F)(F)F)c6ccccc6n(C)c5=O)cccc34)C(=O)O)c(F)c2)CCO1 (stereo partly shown) [Compound 335],0.1 to 1 µM,0.1 to 1 µM,–,–,–,–
Cn1c(=O)c(-c2cccc3c(C[C@H](NC(=O)c4c(F)cccc4C(F)(F)F)C(=O)O)cccc23)c(C(F)(F)F)c2ccccc21 [Compound 443],0.1 to 1 µM,> 1 µM,–,–,–,–
Cn1c(=O)c(-c2cccc3c(C[C@H](NC(=O)c4c(F)ccc(C5CCC(F)(F)CC5)c4F)C(=O)O)cccc23)c(C(F)(F)F)c2ccccc21 [Compound 382],0.1 to 1 µM,0.1 to 1 µM,–,–,–,–
Cn1c(=O)c(-c2cccc3c(C[C@H](NC(=O)C45CC(NCC(F)(F)F)(C4)C5)C(=O)O)cccc23)c(C(F)(F)F)c2ccccc21 [Compound 447],0.1 to 1 µM,0.1 to 1 µM,–,–,–,–
Cn1c(=O)c(-c2cccc3c(C[C@H](NC(=O)c4c(F)cc(N5CCOC(CN6CCCC6)C5)cc4F)C(=O)O)cccc23)c(C(F)(F)F)c2ccccc21 (stereo partly shown) [Compound 339],0.1 to 1 µM,0.1 to 1 µM,–,–,–,–
Cn1ccc(C(F)(F)F)c(-c2cccc3c(C[C@H](NC(=O)c4c(F)cc(N5CCOC[C@H]5c5ccccc5)cc4F)C(=O)O)cccc23)c1=O [Compound 438],0.1 to 1 µM,0.01 to 0.1 µM,–,–,–,–
CN(C)c1ccc2c(c1)c(C(F)(F)F)c(-c1cccc3c(C[C@H](NC(=O)[C@]4(C)CC[C@@H](N5CCOC[C@@H]5C(F)(F)F)CC4)C(=O)O)cccc13)c(=O)n2C [Compound 409],0.1 to 1 µM,0.1 to 1 µM,–,–,–,–
Cn1c(=O)c(-c2cccc3c(C[C@H](NC(=O)[C@]4(C(F)(F)F)CC[C@H](N5CCOC[C@@H]5C(F)(F)F)CC4)C(=O)O)cccc23)c(C(F)(F)F)c2ccccc21 [Compound 423],0.1 to 1 µM,0.1 to 1 µM,–,–,–,–

# Reference: patent US20250313535A1, “ALPHA 4 BETA 7 INTEGRIN MODULATORS AND USES THEREOF” (DICE MOLECULES SV, INC., priority 2022, published 2025)
